{"source": "patent US12377173B2", "about": "“Compositions comprising hyperpolarized probes for H2O2 sensing and methods of using same” (Duke University, priority 2021, dated 2025)", "key": {"[1]": {"assay": "ROS/RNS/reactive sulfur selectivity test, LC/MS", "details": "200 μM probe, 2 mM reactive species, PBS pH 7.4, LC/MS (FIG. 1B)", "protocol": "(§1) Selectivity for the BBCP probe was measured by analytical high performance liquid chromatography (HPLC) using Agilent 1200 Series HPLC System equipped with a multi-wavelength detector and an Agilent Zorbax SB-C18 Column (3.5 μm particle size, 3.0×150 mm). Concentrations of 4-cyanopyridine was calculated using integrated peak intensities at 280 nm using a calibration curve. All reactions were tested with 200 μM BBCP and 2 mM ROS/RNS (10 equiv) in PBS (pH 7.4). At a given time point, the reaction was quenched with 10 μL 1 M ascorbic acid (10 mM) and analyzed by LCMS."}, "HeLa cells": {"test_system": "HeLa cells", "assay": "Cytotoxicity analysis using WST-8 assay (CCK-8)", "assay_type": "cell-based", "details": "concentrations up to 10 mM, 6 h of treatment", "protocol": "WST cytotoxicity assay was performed using Cell Counting Kit-8 (CCK-8) according to the procedure as follows. HeLa cells were seeded in a 96-well plate at a concentration of 5000 cells/well in DMEM medium (high glucose) supplemented with 10% FBS and 1% sodium pyruvate. The cell cultures were incubated for 24 h in a humidified atmosphere of 5% CO2 at 37° C. After the incubation period, 10 μL of 5, 10, 50, 100 mM stock solutions of BBCP dissolved in PBS buffer (pH 7.4) were added to each well so the final concentration is 0.5, 1, 5, 10 mM, respectively. PBS and sodium dodecyl sulfate (SDS) (1 mM) were used as negative and positive controls, respectively. The treated 96-well plates were incubated for 6 and 24 h in a humidified atmosphere of 5% CO2 at 37° C. After appropriate incubation time, the CCK-8 solution (10 μL) was added to each well and further incubated for 2 h for color development. The absorbance at 450 nm from each well was measured by using a microplate reader (Synergy™ H1, BioTek). The background absorbance of BBCP corrected."}, "[2]": {"assay": "ROS/RNS selectivity test, LC/MS", "details": "200 μM BBCP, 2 mM ONOO^−, PBS pH 7.4, LC/MS", "protocol": "as §1, with “LCMS. The ROS and RNS were generated as follows:” for “LCMS.”\nONOO^−: To a solution of aqueous NaOH (0.5 M, 2.5 mL) and iPrOH (2.5 mL) was added H2O2 (30% in H2O, 0.12 mL, 1.2 mmol, 1.2 equiv), followed by isoamyl nitrite (0.135 mL, 1.0 mmol, […]). The reaction was stirred at room temperature for 20 mins and washed with CH2Cl2 (10 mL×2). […] The solution was then filtered and stored in −20° C. until use. The concentration of the stock solution was calculated to be 14.3 mM using absorbance at 302 nm (e=1670 M^−1)."}, "[3]": {"assay": "ROS selectivity test, LC/MS conversion to 4-cyanopyridine", "details": "200 μM BBCP, 2 mM H2O2 (10 equiv), PBS pH 7.4, 5-30 min, room temperature", "protocol": "as §1, with “LCMS. The ROS and RNS were generated as follows:” for “LCMS.”\nH2O2: A 30% H2O2 in H2O solution was diluted to a 500 mM stock solution. 4 μL of 500 mM H2O2 (2 mM) was added to a 200 μM of BBCP in PBS."}, "[4]": {"assay": "ROS selectivity test, LC/MS", "details": "200 μM BBCP, 2 mM OCl^−, PBS pH 7.4, LC/MS", "protocol": "as §1, with “LCMS. The ROS and RNS were generated as follows:” for “LCMS.”\nOCl^−: Commercial bleach (8.25% NaOCl) was diluted to 500 mM. 4 μL of 500 mM NaOCl (for a final concentration of 2 mM) was added to 200 μM of BBCP."}, "[5]": {"assay": "In vivo reaction-based detection of H2O2 with hyperpolarized 15N-BBCP", "details": "rat", "protocol": "Finally, the ability of ^15N-BBCP to image H2O2 in vivo using clinical 3 T MRI was assessed.\nFinally, the feasibility of ^15N-BBCP to detect H2O2 in vivo was investigated in a rat model at the clinical 3 T MRI. […] Despite the small chemical shift difference, the accumulation of ^15N-HBCP production was clearly observed in the later time points."}, "[6]": {"assay": "Stability in PBS and DMEM media (LCMS)"}, "[7]": {"assay": "UV/Vis kinetics measurement", "details": "25° C., PBS pH 7.4, 50 μM BBCP, 5 mM H2O2 (100 equiv)", "protocol": "The pseudo-first order rate constant was calculated by monitoring the BBCP consumption with UV/Vis spectroscopy over time in the presence of excess H2O2. A solution of BBCP (50 μM) oxidation was initiated by the addition of freshly prepared H2O2 (5 mM, 100 equiv) in PBS (pH 7.4) at 25° C. Reactions were monitored as Abs310 change and scanned every 30 s for 20 minutes. The apparent k1 value was determined by the initial rate of reaction (0-50 s) as (3.4±0.15)×10^−3 min^−1. The experiment was repeated in triplicate to give a k2 value of 12.6±0.52 M^−1 min^−1 (0.21±0.0087 M^−1 s^−1)."}, "[8]": {"details": "injection of exogenous H2O2, 3 T 15N-MRS (Example 3)"}}, "data": [{"substance": "1-(4-boronobenzyl)-4-(cyano)pyridin-1-ium [^15N-BBCP]", "values": [{"measurement": "reactivity toward hydrogensulfite", "setting": "[1]", "value": "showed reactivity"}, {"measurement": "cell viability", "setting": "HeLa cells", "value": "> 90", "unit": "%"}, {"measurement": "reactivity with peroxynitrite", "setting": "[2]", "value": "moderate reactivity"}, {"measurement": "conversion to 4-cyanopyridine on reaction with H2O2", "setting": "[3]", "value": "significant conversion to 4-cyanopyridine"}, {"measurement": "reactivity with hypochlorite", "setting": "[4]", "value": "moderate reactivity"}, {"measurement": "15N-CP (fragmentation product) signal in vivo", "setting": "[5]; [8]", "value": "^15N-CP was not observed"}, {"measurement": "15N-HBCP (oxidation product) signal in vivo", "setting": "[5]; [8]", "value": "^15N-HBCP peak was detectable"}, {"measurement": "15N-CP (fragmentation product) signal in vivo", "setting": "[5]; intravenous bolus 40-mM after intraperitoneal H2O2, 3 T", "value": "^15N-CP was not observed"}, {"measurement": "15N-HBCP (oxidation product) signal in vivo", "setting": "[5]; intravenous bolus 40-mM after intraperitoneal H2O2, slab with liver and kidneys, 3 T", "value": "both ^15N-BBCP and ^15N-HBCP peaks appeared"}, {"measurement": "LCMS absorbance peak area of the probe in PBS", "setting": "[6]; 0 hours", "value": 566.6}, {"measurement": "time stable in PBS and DMEM media", "setting": "[6]; 200 μM probe, pH 7.4, room temp, LCMS", "value": "over 26 h"}, {"measurement": "LCMS absorbance peak area of the probe in PBS", "setting": "[6]; 2 hours", "value": 565.6}, {"measurement": "LCMS absorbance peak area of the probe in PBS", "setting": "[6]; 26 hours", "value": 564.9}, {"measurement": "stability in physiological buffer solution (in words)", "setting": "[6]; PBS, pH 7.4, 200 μM, 0, 2 and 24 h (FIG. 4)", "value": "only showing hydrolysis of boronic ester to boronic acid"}, {"measurement": "apparent k1 (pseudo-first order rate constant), initial rate 0-50 s", "setting": "[7]", "value": "(3.4±0.15)×10^−3 min^−1"}]}]}
